Experimental data from ChEMBL document CHEMBL3627711, “Highly Substituted Cyclopentane-CMP Conjugates as Potent Sialyltransferase Inhibitors” (J Med Chem, 2015).
Values joined by “and” are separate entries in the source; they are usually repeats but may differ in a detail not shown here. Equal entries are not always repeated.

How the values were obtained:
[1] = biological target: T1, Beta-galactoside alpha-2,6-sialyltransferase 1 (Homo sapiens, UniProt P15907); test: Competitive inhibition of human recombinant ST6Gal-1 using CMP-Neu5Ac and p-nitrophenyl LacNAc as donar and acceptor by Lineweaver-Burk double reciprocal plot analysis
T1 sequence (P15907 whole entry): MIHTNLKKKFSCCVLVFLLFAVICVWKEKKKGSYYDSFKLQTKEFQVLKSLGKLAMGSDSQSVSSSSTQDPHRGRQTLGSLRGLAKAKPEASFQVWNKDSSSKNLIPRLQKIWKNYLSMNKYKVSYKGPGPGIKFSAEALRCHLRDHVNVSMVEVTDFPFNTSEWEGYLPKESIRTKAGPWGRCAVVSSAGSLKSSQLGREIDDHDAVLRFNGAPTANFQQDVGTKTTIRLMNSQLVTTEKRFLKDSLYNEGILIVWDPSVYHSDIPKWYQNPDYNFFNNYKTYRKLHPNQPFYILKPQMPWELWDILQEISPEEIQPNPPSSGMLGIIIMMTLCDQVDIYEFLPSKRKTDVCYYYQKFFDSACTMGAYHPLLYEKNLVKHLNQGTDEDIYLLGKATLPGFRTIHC

[2] = biological target: T2, Beta-galactoside alpha-2,6-sialyltransferase 1 (Homo sapiens) (UniProt P15907); test: Ratio of CMP-Neu5Ac Km to compound Ki for human recombinant ST6Gal-1
T2 sequence (whole entry): T1 sequence (P15907 whole entry)

[3] = biological target: T2, Beta-galactoside alpha-2,6-sialyltransferase 1 (Homo sapiens); test: Inhibition of human recombinant ST6Gal-1 assessed as trisaccharide formation using CMP-Neu5Ac and p-nitrophenyl LacNAc as donar and acceptor at 10 uM by RP-HPLC analysis
[4] = Inhibition of rat alpha-2,6-sialyltransferase

Row | Ki [1] [nM] | Ratio [2] | inhibition [3] | Ki [4] [nM] | SMILES
1 | 865 | 48.1 | 46.3% and 70.8% | – | CC(=O)NC[C@@H]1C[C@@H](C(OP(=O)(O)OC[C@H]2O[C@@H](n3ccc(N)nc3=O)[C@H](O)[C@@H]2O)P(=O)(O)O)C[C@H]1OCc1ccccc1 (stereo partly drawn)
2 | 19 | 2190 | 98.1% | – | Nc1ccn([C@@H]2O[C@H](COP(=O)(O)OC(c3cccc(Oc4ccccc4)c3)P(=O)(O)O)[C@@H](O)[C@H]2O)c(=O)n1 (stereo partly drawn)
3 | – | – | – | 29 | CC(=O)N[C@H]1[C@H](Oc2ccccc2)OC(C(OP(=O)(O)OC[C@H]2O[C@@H](n3ccc(N)nc3=O)[C@H](O)[C@@H]2O)P(=O)(O)O)=C[C@@H]1O (stereo partly drawn)
4 | – | – | 12.8% | – | Nc1ccn([C@@H]2O[C@H](COP(=O)(O)OC(C3CCCC3)P(=O)(O)O)[C@@H](O)[C@H]2O)c(=O)n1 (stereo in doubt; 2l)
5 | 5850 | – | – | – | Nc1ccn([C@@H]2O[C@H](COP(=O)(O)OC(C3CCCC3)P(=O)(O)O)[C@@H](O)[C@H]2O)c(=O)n1 (stereo in doubt; 2s) [listing 1 of 2 here]
6 | – | 7.1 | 43.2% | – | Nc1ccn([C@@H]2O[C@H](COP(=O)(O)OC(C3CCCC3)P(=O)(O)O)[C@@H](O)[C@H]2O)c(=O)n1 (stereo in doubt; 2s) [listing 2 of 2 here]
7 | – | – | 13% | – | Nc1ccn([C@@H]2O[C@H](COP(=O)(O)OC([C@H]3C[C@@H](O)[C@@H](O)C3)P(=O)(O)O)[C@@H](O)[C@H]2O)c(=O)n1 (stereo in doubt; 3l)
8 | – | – | 31% | – | Nc1ccn([C@@H]2O[C@H](COP(=O)(O)OC([C@H]3C[C@@H](O)[C@@H](O)C3)P(=O)(O)O)[C@@H](O)[C@H]2O)c(=O)n1 (stereo in doubt; 3s)
9 | – | – | 9.99% | – | CC(=O)N[C@H]1C[C@H](C(OP(=O)(O)OC[C@H]2O[C@@H](n3ccc(N)nc3=O)[C@H](O)[C@@H]2O)P(=O)(O)O)C[C@H]1O (stereo in doubt; 4Sl)
10 | 4310 | – | – | – | CC(=O)N[C@H]1C[C@H](C(OP(=O)(O)OC[C@H]2O[C@@H](n3ccc(N)nc3=O)[C@H](O)[C@@H]2O)P(=O)(O)O)C[C@H]1O (stereo in doubt; 4Ss) [listing 1 of 2 here]
11 | – | 9.6 | 50.3% | – | CC(=O)N[C@H]1C[C@H](C(OP(=O)(O)OC[C@H]2O[C@@H](n3ccc(N)nc3=O)[C@H](O)[C@@H]2O)P(=O)(O)O)C[C@H]1O (stereo in doubt; 4Ss) [listing 2 of 2 here]
12 | – | – | 22.1% | – | CC(=O)N[C@H]1C[C@@H](C(OP(=O)(O)OC[C@H]2O[C@@H](n3ccc(N)nc3=O)[C@H](O)[C@@H]2O)P(=O)(O)O)C[C@H]1OCc1ccccc1 (stereo in doubt; 5Rl)
13 | 1510 | – | – | – | CC(=O)N[C@H]1C[C@@H](C(OP(=O)(O)OC[C@H]2O[C@@H](n3ccc(N)nc3=O)[C@H](O)[C@@H]2O)P(=O)(O)O)C[C@H]1OCc1ccccc1 (stereo in doubt; 5Rs) [listing 1 of 2 here]
14 | – | 27.6 | 65.9% | – | CC(=O)N[C@H]1C[C@@H](C(OP(=O)(O)OC[C@H]2O[C@@H](n3ccc(N)nc3=O)[C@H](O)[C@@H]2O)P(=O)(O)O)C[C@H]1OCc1ccccc1 (stereo in doubt; 5Rs) [listing 2 of 2 here]
15 | 436 | – | – | – | CC(=O)N[C@H]1C[C@H](C(OP(=O)(O)OC[C@H]2O[C@@H](n3ccc(N)nc3=O)[C@H](O)[C@@H]2O)P(=O)(O)O)C[C@H]1OCc1ccccc1 (stereo in doubt; 5Sl) [listing 1 of 2 here]
16 | – | 95.5 | 75.3% | – | CC(=O)N[C@H]1C[C@H](C(OP(=O)(O)OC[C@H]2O[C@@H](n3ccc(N)nc3=O)[C@H](O)[C@@H]2O)P(=O)(O)O)C[C@H]1OCc1ccccc1 (stereo in doubt; 5Sl) [listing 2 of 2 here]
17 | 1630 | – | – | – | CC(=O)N[C@H]1C[C@H](C(OP(=O)(O)OC[C@H]2O[C@@H](n3ccc(N)nc3=O)[C@H](O)[C@@H]2O)P(=O)(O)O)C[C@H]1OCc1ccccc1 (stereo in doubt; 5Ss) [listing 1 of 2 here]
18 | – | 25.6 | 63.9% | – | CC(=O)N[C@H]1C[C@H](C(OP(=O)(O)OC[C@H]2O[C@@H](n3ccc(N)nc3=O)[C@H](O)[C@@H]2O)P(=O)(O)O)C[C@H]1OCc1ccccc1 (stereo in doubt; 5Ss) [listing 2 of 2 here]
19 | 28 | – | – | – | CC(=O)NC[C@@H]1CCC(OP(=O)(O)OC[C@H]2O[C@@H](n3ccc(N)nc3=O)[C@H](O)[C@@H]2O)(P(=O)(O)O)[C@H]1OCc1ccccc1 (stereo in doubt; 48l) [listing 1 of 2 here]
20 | – | 1490 | 97.5% | – | CC(=O)NC[C@@H]1CCC(OP(=O)(O)OC[C@H]2O[C@@H](n3ccc(N)nc3=O)[C@H](O)[C@@H]2O)(P(=O)(O)O)[C@H]1OCc1ccccc1 (stereo in doubt; 48l) [listing 2 of 2 here]
21 | 477 | – | – | – | CC(=O)NC[C@@H]1CCC(OP(=O)(O)OC[C@H]2O[C@@H](n3ccc(N)nc3=O)[C@H](O)[C@@H]2O)(P(=O)(O)O)[C@H]1OCc1ccccc1 (stereo in doubt; 48s) [listing 1 of 2 here]
22 | – | 87.3 | 74.1% | – | CC(=O)NC[C@@H]1CCC(OP(=O)(O)OC[C@H]2O[C@@H](n3ccc(N)nc3=O)[C@H](O)[C@@H]2O)(P(=O)(O)O)[C@H]1OCc1ccccc1 (stereo in doubt; 48s) [listing 2 of 2 here]
